Source: ChEMBL document CHEMBL3875177, “Design, synthesis and biological evaluation of [1,2,3]triazolo[4,5-d]pyrimidine derivatives possessing a hydrazone moiety as antiproliferative agents” (Eur J Med Chem, 2016)
Activity calls are given as the source filed them. The rule behind the calls is not given here.

How the values were obtained:
[1] = Antiproliferative activity against human EC109 cells after 72 hrs by MTT assay; type: functional, cell-based; settings: ECa-109, 72 h
[2] = Antiproliferative activity against human MCF7 cells after 72 hrs by MTT assay; type: functional, cell-based; settings: MCF7, 72 h
[3] = (§1) Antiproliferative activity against human MGC803 cells after 72 hrs by MTT assay; type: functional, cell-based; settings: MGC-803, 72 h
[4] = Antiproliferative activity against human GES-1 cells after 72 hrs by MTT assay; type: cell-based; settings: GES1, 72 h
MGC-803 [5] = assay: Induction of mitochondrial membrane potential loss in human MGC803 cells at 4 uM after 24 hrs by JC-1 staining based flow cytometry (reference value: 49.8%); type: functional
MGC-803 [6] = assay: Induction of apoptosis in human MGC803 cells assessed as increase in Bax protein expression after 24 hrs by Western blot method; type: functional, cell-based
MGC-803 [7] = assay: Induction of apoptosis in human MGC803 cells assessed as formation of apoptotic bodies at 1 to 4 uM after 24 hrs by Hoechst 33258 staining based fluorescence microscopic method; type: functional, cell-based
[8] = biological target: Lysine-specific histone demethylase 1A (Homo sapiens) (UniProt O60341); assay: Inhibition of LSD1 (unknown origin) at 10 uM relative to control
MGC-803 [9] = assay: Induction of apoptosis in human MGC803 cells at 1 uM after 24 hrs by Annexin-V FITC/propidium iodide staining based flow cytometry (reference value: 1.8%); type: functional
[10] = Inhibition of colony formation in human MGC803 cells assessed as reduction in foci formation at 0.8 uM after 10 days by crystal violet staining based assay relative to control; type: functional; settings: MGC-803, 240 h
MGC-803 [11] = assay: Induction of apoptosis in human MGC803 cells at 2 uM after 24 hrs by Annexin-V FITC/propidium iodide staining based flow cytometry (reference value: 1.8%); type: functional
MGC-803 [12] = assay: Induction of apoptosis in human MGC803 cells assessed as increase in caspase-9 protein expression at 1 to 4 uM after 24 hrs by Western blot method; type: functional, cell-based
MGC-803 [13] = assay: Induction of apoptosis in human MGC803 cells at 4 uM after 24 hrs by Annexin-V FITC/propidium iodide staining based flow cytometry (reference value: 1.8%); type: functional
MGC-803 [14] = assay: Induction of apoptosis in human MGC803 cells assessed as decrease in Bcl2 protein expression at 1 to 4 uM after 24 hrs by Western blot method; type: functional, cell-based
MGC-803 [15] = assay: Induction of apoptosis in human MGC803 cells assessed as increase in Bak protein expression after 24 hrs by Western blot method; type: functional, cell-based
MGC-803 [16] = assay: Induction of apoptosis in human MGC803 cells assessed as increase in PUMA protein expression after 24 hrs by Western blot method; type: functional, cell-based
MGC-803 [17] = assay: Induction of apoptosis in human MGC803 cells assessed as increase in caspase-3 protein expression at 1 to 4 uM after 24 hrs by Western blot method; type: functional, cell-based
MGC-803 [18] = assay: Induction of apoptosis in human MGC803 cells assessed as decrease in Mcl1 protein expression at 1 to 4 uM after 24 hrs by Western blot method; type: functional, cell-based
MGC-803 [19] = assay: Induction of apoptosis in human MGC803 cells assessed as chromatin shrinkage at 1 to 4 uM after 24 hrs by Hoechst 33258 staining based fluorescence microscopic method; type: functional, cell-based
MGC-803 [20] = assay: as §1; type: functional, cell-based
MGC-803 [21] = assay: Induction of mitochondrial membrane potential loss in human MGC803 cells after 24 hrs by JC-1 staining based flow cytometry; type: functional, cell-based
MGC-803 [22] = assay: Induction of apoptosis in human MGC803 cells assessed as cell rounding at 1 to 4 uM after 24 hrs by Hoechst 33258 staining based fluorescence microscopic method; type: functional
MGC-803 [23] = assay: Induction of apoptosis in human MGC803 cells after 24 hrs by Annexin-V FITC/propidium iodide staining based flow cytometry; type: functional, cell-based

SMILES	IC50 [1] [µM]	IC50 [2] [µM]	IC50 [3] [µM]	also measured
CCCSc1nc(N/N=C(\C)c2ccccc2O)c2nnn(Cc3ccco3)c2n1	5.76	29	4.76	IC50 [4]: 33.3 µM
C#CCSc1nc(N/N=C/c2ccc(N(C)C)cc2)c2nnn(Cc3ccccc3)c2n1	31.2	> 64	7.62	–
CCCSc1nc(N/N=C(\C)c2ccccc2O)c2nnn(Cc3cccc(Cl)c3)c2n1	13	39.9	6.5	–
CCCSc1nc(N/N=C/c2ccccc2F)c2nnn(Cc3ccccc3)c2n1	> 64	> 64	> 64	–
CCCSc1nc(N/N=C(\C)c2ccccc2O)c2nnn(Cc3ccccc3)c2n1	11.1	11	2.31	IC50 [4]: 32.3 µM
CCCSc1nc(N/N=C/c2c[nH]c3ccccc23)c2nnn(Cc3ccccc3)c2n1	8.69	9.01	7.41	–
C#CCSc1nc(N/N=C/c2c(O)ccc3ccccc23)c2nnn(Cc3ccccc3)c2n1	6.52	8.97	10.5	–
CCCSc1nc(N/N=C/c2ccccc2Cl)c2nnn(Cc3ccccc3)c2n1	6.18	13.8	10.9	–
CCCSc1nc(N/N=C(\C)c2ccccc2O)c2nnn(Cc3ccc(F)cc3)c2n1	21.9	> 64	11	–
CCCSc1nc(N/N=C/c2cccnc2)c2nnn(Cc3ccccc3)c2n1	> 64	58.7	38.1	–
CCCSc1nc(N/N=C(\C)c2ccccc2O)c2nnn(Cc3ccc(Br)cc3)c2n1	36.1	15.6	11.3	–
O=c1[nH]cc(F)c(=O)[nH]1 [FLUOROURACIL]	10.6	9.25	7.35	–
CCCSc1nc(N/N=C(\C)c2ccccc2O)c2nnn(Cc3ccc(Cl)cc3)c2n1	11.2	42.6	7.1	–
CCCSc1nc(N/N=C(\C)c2ccc(Br)cc2)c2nnn(Cc3ccccc3)c2n1	4.67	13	6.02	–
CCCSc1nc(N/N=C(\C)c2ccc(O)cc2)c2nnn(Cc3ccccc3)c2n1	32.5	21.6	16.7	–
CCCSc1nc(N/N=C/c2cc(OC)c(OC)c(OC)c2)c2nnn(Cc3ccccc3)c2n1	4.06	> 64	9.41	IC50 [4]: > 64 µM
CCCSc1nc(N/N=C(\C)c2ccc(OC)cc2)c2nnn(Cc3ccccc3)c2n1	> 64	> 64	44.3	–
CCCSc1nc(N/N=C(\C)c2ccccc2O)c2nnn(Cc3ccccc3Cl)c2n1	> 64	> 64	35	–

SMILES	IC50 [1] [µM]	IC50 [2] [µM]	IC50 [3] [µM]	also measured
CCCSc1nc(N/N=C/c2ccccc2)c2nnn(Cc3ccccc3)c2n1	> 64	> 64	> 64	–
CCCSc1nc(N/N=C(\C)c2ccccc2)c2nnn(Cc3ccccc3)c2n1	32.2	32.1	25.4	–
C/C(=N\Nc1nc(SCc2ccccc2)nc2c1nnn2Cc1ccccc1)c1ccccc1O	1.77	0.95	0.85	Activity (MGC-803 [5]): <=90.4%; Activity (MGC-803 [6]): Dose-dependent effect; Activity (MGC-803 [7]): Active; inhibition [8]: 26.8%; Activity (MGC-803 [9]): <=8.7%; inhibition at 0.8 µM [10]: 83%; Activity (MGC-803 [11]): <=24.8%; Activity (MGC-803 [12]): Active; Activity (MGC-803 [13]): <=53.9%; Activity (MGC-803 [14]): Active; Activity (MGC-803 [15]): Dose-dependent effect; Activity (MGC-803 [16]): Dose-dependent effect; Activity (MGC-803 [17]): Active; Activity (MGC-803 [18]): Active; Activity (MGC-803 [19]): Active; Activity (MGC-803 [20]): Dose-dependent effect; Activity (MGC-803 [21]): Dose-dependent effect; Activity (MGC-803 [22]): Active; Activity (MGC-803 [23]): Dose-dependent effect; IC50 [4]: 56.2 µM
CCCSc1nc(N/N=C/c2ccc(N(C)C)cc2)c2nnn(Cc3ccccc3)c2n1	20	12.2	13.1	–
CCCSc1nc(N/N=C(\C)c2ccccc2O)c2nnn(CCO)c2n1	60.3	> 64	47.1	–
CCCSc1nc(N/N=C/c2cccc(Cl)c2)c2nnn(Cc3ccccc3)c2n1	> 64	> 64	> 64	–
C#CCSc1nc(N/N=C/c2cc(OC)c(OC)c(OC)c2)c2nnn(Cc3ccccc3)c2n1	6.54	17	4.67	IC50 [4]: 25.6 µM
COc1cc(/C=N/Nc2nc(SCc3ccccc3)nc3c2nnn3Cc2ccccc2)cc(OC)c1OC	4.4	13.5	1.32	IC50 [4]: 48.3 µM
CCCSc1nc(N/N=C/c2cccs2)c2nnn(Cc3ccccc3)c2n1	> 64	> 64	> 64	–
CCCSc1nc(N/N=C/c2ccc([N+](=O)[O-])cc2)c2nnn(Cc3ccccc3)c2n1	6.64	11	10.1	–
CCCSc1nc(N/N=C/c2c(O)ccc3ccccc23)c2nnn(Cc3ccccc3)c2n1	9.29	6.4	3.71	IC50 [4]: 13.1 µM
CCCSc1nc(N/N=C/c2ccc(C)cc2)c2nnn(Cc3ccccc3)c2n1	> 64	> 64	> 64	–
CCCSc1nc(N/N=C/c2ccc3ccccc3c2)c2nnn(Cc3ccccc3)c2n1	> 64	> 64	> 64	–
C#CCSc1nc(N/N=C(\C)c2ccccc2O)c2nnn(Cc3ccccc3)c2n1	5.25	11.2	3.82	–
CCCSc1nc(N/N=C/c2ccc(Br)cc2)c2nnn(Cc3ccccc3)c2n1	> 64	> 64	34.9	–
CCCSc1nc(N/N=C(\C)c2ccccc2O)c2nnn(Cc3ccc(O)cc3)c2n1	15.9	9.52	7.68	–
CCCSc1nc(N/N=C/c2ccc(Cl)cc2)c2nnn(Cc3ccccc3)c2n1	> 64	> 64	> 64	–
CCCSc1nc(N/N=C(\C)c2ccccc2O)c2nnn(CCc3cccs3)c2n1	30.9	> 64	16.4	–
